Laboratory results taken from PMC4139342, “Pharmacokinetics-Pharmacodynamics Analysis of Bicyclic 4-Nitroimidazole Analogs in a Murine Model of Tuberculosis” (PLoS ONE, 2014).
≈ marks a conversion by molar mass, not a printed value. Read-outs that look alike come from different tables or passages of the source.

Assays:
[1] = tested on: M. tuberculosis (Mtb) (H37Rv, ATCC 27294); experiment: microbe, parasite or virus in culture; type: cell-based; conditions: Mycobacterium tuberculosis
[2] = not given; remark: listed apart in the source
[3] = female, CD-1, mouse, in vivo, po
in vivo [4] = conditions: female, CD-1, mouse, po
in vivo [5] = conditions: female, CD-1, mouse, iv; for clearance: i.v. CL
in vivo [6] = conditions: female, CD-1, mouse, po; remark: listed apart in the source
physchem [7] = experiment: physchem
[8] = In vivo plasma PK after intravenous dosing; conditions: mice; for half-life: female, CD-1, mouse, plasma, iv, T1/2 (i.v)
[9] = In vivo plasma PK after oral dosing in CM-2 formulation; conditions: for half-life: female, CD-1, mouse, plasma, po
[10] = Cytotoxicity against THP1 macrophage cell lines; type: cell-based; conditions: human
Mtb H37Rv = experiment: In vivo mouse efficacy, established murine TB model; design: species or system Balb/c mice; conditions: for Efficacy compared with PA-824, in words: significance at P<0.05; for Dose dependence of efficacy, in words: 25 versus 100 mg/kg oral daily for 4 weeks; for log reduction at 25 mg/kg / log reduction at 100 mg/kg: Mycobacterium tuberculosis, H37RV, po, 672 h, read-out: Mean log lung CFU reduction ± SEM compared to untreated controls
Description: In vivo mouse efficacy studies were determined after intranasal infection of Balb/c mice with 10^3 cfu Mtb H37Rv. Treatment was initiated 4 weeks after infection. Compounds were orally administered in CM-2 formulation for 4 weeks daily. Bacterial loads were determined at 2 and 4 weeks post treatment. Statistical analysis was done by a one-way analysis of variance, followed by a multiple comparison analysis of variance by a one-way Tukey test (GraphPad Prism, version 5.02, San Diago, California USA, www.graphpad.com). Differences were considered statistically significant at the 95% level of confidence.

[11] = tested on: CaCo-2 colon carcinoma cell lines
physchem [12] = conditions: pH 6.8, aqueous buffer, thermodynamic from solid
in vitro [13] = conditions: human, Caco-2
in vitro [14] = conditions: mouse, plasma
[15] = In vivo lung PK after oral dosing; conditions: female, CD-1, mouse
[16] = female, CD-1, mouse, in vivo, po, 25 mg/kg
Mtb = conditions: murine model, cited from earlier work
[17] = design: method as in PMID 19528280; conditions: healthy subjects, oral daily doses for 7 days; cited from earlier work
[18] = design: method as in PMID 16870750; conditions: mice dosed for 2 months; cited from earlier work
[19] = lungs; cited from earlier work
[20] = 25 mg/kg oral daily for 4 weeks, 5 animals
[21] = 100 mg/kg oral daily for 4 weeks, 5 animals
[22] = 25 mg/kg oral daily for 4 weeks, mean value from three independent experiments (n = 15)
[23] = mouse plasma, single oral dose 25 mg/kg, CM-2

## O=[N+]([O-])c1cn2c(n1)OC[C@@H](NCc1ccc(OC(F)(F)F)c(O)c1)C2 [NI-147]
[1]
  MIC99: 0.03 µg/mL (≈ 0.0802 µM)
other
  Solubility pH 6.8: 56.0 µg/mL
[2]
  PAMPA %FA: 43%
  PAMPA Log Pe: –5.2 cm/sec
[3]; 25 mg/kg
  Lung AUC24: 2.6 µg·h/g
  Lung Cmax: 0.5 µg/g
In vivo [4]; 25 mg/kg
  AUC: 20 ng·h/mL
  Cmax: 40 ng/mL
  Tmax: 0.1 h
  bioavailability: 0.3%
In vivo [5]; 5 mg/kg
  Vd: 0.4 L/kg
  clearance: 70.8 mL/min/kg
In vivo [6]; 25 mg/kg
  Tmax: 0.1 h
Physchem [7]
  logP: 2.4
[8]; 5 mg/kg, i.v. dosing at 5 mg/kg
  half-life: 0.3 h
[9]; 25 mg/kg
  half-life: 0.2 h

## O=C(CO[C@@H]1COc2nc([N+](=O)[O-])cn2C1)N1CCN(c2ccc(C(F)(F)F)cn2)CC1 [NI-644]
[1]
  MIC99: 0.09 µg/mL (≈ 0.197 µM)
[10]
  CC50: > 10 µg/mL
Mtb H37Rv; [20]
  Mean log lung CFU ± SEM: 6.18±0.03 log CFU
  log reduction at 25 mg/kg: 0.48 to 0.89
Mtb H37Rv; 25 mg/kg oral daily for 4 weeks
  Efficacy compared with PA-824, in words: significantly (P<0.05) less efficacious than PA-824
Mtb H37Rv; [21]
  Mean log lung CFU ± SEM: 6.09±0.07 log CFU
  log reduction at 100 mg/kg: 0.57 ± 0.07
Mtb H37Rv; 100 mg/kg oral daily for 4 weeks
  Efficacy compared with PA-824, in words: significantly (P<0.05) less efficacious than PA-824
Mtb H37Rv
  Dose dependence of efficacy, in words: no dose-dependent increase in bactericidal activity
[2]
  PAMPA %FA: 83%
  PAMPA Log Pe: –4.9 cm/sec
[11]
  Permeability in the Caco-2 assay, in words: moderate permeability
[3]; 50 mg/kg
  Lung AUC24: 38.1 µg·h/g
  Lung Cmax: 7.5 µg/g
In vivo [4]; 50 mg/kg
  AUC: 89500 ng·h/mL
  Cmax: 16200 ng/mL
  Tmax: 1 h
  bioavailability: 100%
In vivo [5]; 10 mg/kg
  Vd: 0.7 L/kg
  clearance: 9.5 mL/min/kg
In vivo [6]; 50 mg/kg
  Tmax: 1 h
In vivo [6]; 50 mg/kg, Lung to Plasma ratio AUC24
  Kp: 0.4
In vivo [6]; 50 mg/kg, Lung to Plasma ratio Cmax
  Kp: 0.5
Physchem [12]
  solubility: 14 µg/mL (≈ 30.7 µM)
Physchem [7]
  logP: 2.6
In vitro [13]
  Papp A→B: 2.8 ×10⁻⁶ cm/s
  Papp B→A: 13.7 ×10⁻⁶ cm/s
  efflux ratio: 4.8
In vitro [14]
  fraction unbound: 0.1
[15]; 50 mg/kg
  half-life: 2.9 h
[8]; 10 mg/kg, i.v. dosing at 10 mg/kg
  half-life: < 1 h
[8]; i.v. dosing at 10 mg/kg, 10 mg/kg
  T1/2 (i.v): 0.9 h
[9]; 50 mg/kg
  half-life: 3.6 h

## O=[N+]([O-])c1cn2c(n1)OC[C@@H](OCc1ccc(OC(F)(F)F)cc1)C2 [PA-824, (6S)-2-nitro-6-{[4-(trifluoromethoxy)benzyl]oxy}-6,7-dihydro-5H-imidazo[2,1-b][1, 3]oxazine, reference compound]
[1]
  MIC99: 0.3 µg/mL (≈ 0.835 µM)
[10]; THP1 macrophage cell line, THP1 macrophage cell lines, read-out: Cytotoxicity CC50
  CC50: > 10 µg/mL
Mtb H37Rv; [22]
  Mean log lung CFU reduction ± SEM compared to untreated controls: 1.48 ± 0.09 log CFU
  log reduction at 25 mg/kg: 1.48 ± 0.09
Mtb H37Rv
  Dose dependence of efficacy, in words: dose dependent increase in efficacy
Mtb H37Rv; [20]
  log reduction at 25 mg/kg: 1.23 to 1.56
Mtb H37Rv; [21]
  log reduction at 100 mg/kg: 1.95 ± 0.13
Mtb H37Rv; 100 mg/kg oral daily for 4 weeks, mean value from three independent experiments (n = 15)
  log reduction at 100 mg/kg: 2.3 ± 0.08
[16]
  Plasma free fCmax: 0.6 µg/mL
[3]; 25 mg/kg
  Lung AUC24: 139.9 µg·h/g
  Lung Cmax: 17.8 µg/g
Mtb; for 1-log10 kill
  fT>MIC in plasma required: 48%
Mtb; for 1.59 log10 kill
  fT>MIC in plasma required: 77%
Mtb; for bacteriostatic effect
  fT>MIC in plasma required: 22%
[17]
  Tolerability: well tolerated
[18]
  Plasma accumulation: absence of plasma accumulation
In vivo [4]; 25 mg/kg
  AUC: 50900 ng·h/mL
In vivo [6]; 25 mg/kg
  Tmax: 0.3 h
In vivo [6]; 25 mg/kg, Lung to Plasma ratio AUC24
  Kp: 2.7
In vivo [6]; 25 mg/kg, Lung to Plasma ratio Cmax
  Kp: 3
Physchem [12]
  solubility: 13 µg/mL (≈ 36.2 µM)
Physchem [7]
  logP: 2.75
In vitro [13]
  Papp A→B: 27.6 ×10⁻⁶ cm/s
  Papp B→A: 20.4 ×10⁻⁶ cm/s
  efflux ratio: 0.8
In vitro [14]
  fraction unbound: 0.1
PAMPA permeability; effective permeability
  PAMPA Log Pe: –4.2 cm/sec
PAMPA permeability; fraction absorbed
  PAMPA %FA: 99%
[15]; 25 mg/kg
  half-life: 4.8 h
[8]; i.v. dosing at 10 mg/kg
  T1/2 (i.v): 1.6 h
  i.v. CL: 12.1 mL/min/kg
  i.v. Vss: 1.6 L/kg
[9]; mice, p.o. 25 mg/kg versus i.v. 5 mg/kg (PA-824: i.v. 10 mg/kg)
  F, oral bioavailability: 100%
[9]; [23]
  T1/2 (p.o.): 2.7
  p.o. Tmax: 2 h
[9]; mouse plasma, total concentration, single oral dose 25 mg/kg, CM-2
  p.o. Cmax: 6000 ng/mL

## COc1nc2ccc(Br)cc2cc1[C@@H](c1ccccc1)[C@@](O)(CCN(C)C)c1cccc2ccccc12 [TMC207]
[19]
  AUC L/P ratio: 22
